Assay results reported in ChEMBL document CHEMBL2429776, “Cyclic 3-alkyl pyridinium alkaloid monomers from a New Zealand Haliclona sp. marine sponge” (J Nat Prod, 2013).
Calls of active or inactive are those of the source. The calls are words filed in the database; no cut-off is given here.

Legend:
Type in all cases: functional, organism-based
Enterococcus faecalis [1] = experiment: Antimicrobial activity against Enterococcus faecalis ATCC 19433 at 8 ug after 24 hrs by disk-diffusion assay
Saccharomyces cerevisiae = experiment: Antifungal activity against Saccharomyces cerevisiae YCG 117 after 18 hrs; details: YCG 117, 18 h
Candida albicans [2] = experiment: Antifungal activity against Candida albicans ATCC 10231 at 8 ug after 24 hrs by disk-diffusion assay
Enterococcus faecalis [3] = experiment: Antimicrobial activity against Enterococcus faecalis ATCC 19433 at 20 ug after 24 hrs by disk-diffusion assay
Enterococcus faecalis [4] = experiment: Antimicrobial activity against Enterococcus faecalis ATCC 19433 at 2 ug after 24 hrs by disk-diffusion assay
Candida albicans [5] = experiment: Antifungal activity against Candida albicans ATCC 10231 at 2 ug after 24 hrs by disk-diffusion assay
Candida albicans [6] = experiment: Antifungal activity against Candida albicans ATCC 10231 at 20 ug after 24 hrs by disk-diffusion assay

SMILES | Activity (Enterococcus faecalis [1]) | IC50 (Saccharomyces cerevisiae) | Activity (Candida albicans [2]) | Activity (Enterococcus faecalis [3]) | Activity (Enterococcus faecalis [4]) | Activity (Candida albicans [5]) | Activity (Candida albicans [6])
c1cc2c[n+](c1)CCCCCCCCCCCCC2 | inactive | 1.5 µg/mL | inactive | inactive | inactive | inactive | inactive
C1=C\CCCCC[n+]2cccc(c2)CCCCCC/1 | inactive | 1.5 µg/mL | inactive | inactive | inactive | inactive | inactive
C1=C\CCCCCC[n+]2cccc(c2)CCCCCC/1 | inactive | 1.5 µg/mL | inactive | inactive | inactive | inactive | inactive
